The text below walks through data of patent US7294618B2, “Glucopyranosyloxypyrazole derivatives and medicinal use thereof” (Kissei Pharmaceutical Co., Ltd., priority 2001, dated 2007).

The target in experiment [1] is T1, human SGLT2 (Homo sapiens, UniProt P31639, I433V).
T1 construct: expressed in transfected cells; host or cells: COS-7 cells (RIKEN CELL BANK RCB0539), transient, electroporation of KL29
T1 sequence (P31639 1-672 I433V): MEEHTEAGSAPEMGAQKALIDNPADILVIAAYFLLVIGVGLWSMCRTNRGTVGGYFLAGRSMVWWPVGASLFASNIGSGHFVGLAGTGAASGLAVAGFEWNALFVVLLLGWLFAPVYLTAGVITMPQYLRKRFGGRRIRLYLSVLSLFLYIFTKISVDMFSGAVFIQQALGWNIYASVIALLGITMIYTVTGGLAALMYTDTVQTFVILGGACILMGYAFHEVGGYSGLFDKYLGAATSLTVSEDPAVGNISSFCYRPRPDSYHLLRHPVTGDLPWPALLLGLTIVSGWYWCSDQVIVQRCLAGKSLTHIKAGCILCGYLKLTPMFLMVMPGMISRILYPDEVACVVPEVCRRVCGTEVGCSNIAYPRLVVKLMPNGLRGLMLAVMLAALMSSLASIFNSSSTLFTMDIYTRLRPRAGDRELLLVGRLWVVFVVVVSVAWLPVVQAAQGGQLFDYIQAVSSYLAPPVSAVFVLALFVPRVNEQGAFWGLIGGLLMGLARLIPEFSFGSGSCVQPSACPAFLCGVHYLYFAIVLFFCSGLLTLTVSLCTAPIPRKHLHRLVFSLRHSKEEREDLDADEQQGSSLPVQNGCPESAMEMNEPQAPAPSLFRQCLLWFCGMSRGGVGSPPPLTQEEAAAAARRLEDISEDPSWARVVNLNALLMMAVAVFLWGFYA
The experiment in a line: Assay for inhibitory effect on human SGLT2 activity (uptake of methyl-α-D-glucopyranoside). Format: cell-based. The note with it: for IC50: COS-7 cells expressing transiently human SGLT2, uptake of methyl-α-D-(U-14C)glucopyranoside, 37° C., 2 hours. The procedure: • Assay for Inhibitory Effect on Human SGLT2 Activity • 1) Construction of the Plasmid Vector Expressing Human SGLT2
Preparation of the cDNA library for PCR amplification was performed by reverse transcription of a total RNA deprived from human kidney (Ori gene) with oligo dT as the primer, using SUPERSCRIPT Preamplification System (Gibco-BRL: LIFE TECHNOLOGIES). The DNA fragment coding for human SGLT2 was amplified by the PCR reaction, in which the human kidney cDNA library described above was used as the template and the following oligo nucleotides 0702F and 0712R, presented as Sequence Numbers 1 and 2 respectively, were used as the primers. The amplified DNA fragment was ligated into pCR-Blunt (Invitrogen), a vector for cloning, according to standard method of the kit. The Escherichia coli HB101 was transformed according to usual method and then selection of the transformants was performed on the LB agar medium containing 50 μg/mL of kanamycin. After plasmid DNA was extracted and purified from the one of the transformants, amplifying of the DNA fragment coding for human SGLT2 was performed by the PCR reaction, in which the following oligo nucleotides 0714F and 0715R, presented as Sequence Numbers 3 and 4 respectively, were used as the primers. The amplified DNA fragment was digested with restriction enzymes, Xho I and Hind III, and then purified with Wizard Purification System (Promega). This purified DNA fragment was inserted at the corresponding restriction sites of pcDNA3.1 (−) Myc/His—B (Invitrogen), a vector for expressing of fusion protein. The Escherichia coli HB101 was transformed according to usual method and then selection of the transformant was performed on the LB agar medium containing 100 μg/mL of ampicillin. After plasmid DNA was extracted and purified from this transformant, the base sequence of the DNA fragment inserted at the multi-cloning sites of the vector pcDNA3. 1 (−) Myc/His—B was analyzed. […] Sequentially, a clone in which valine is substituted for isoleucine-433 was obtained. This plasmid vector expressing human SGLT2 in which the peptide presented as Sequence Number 5 is fused to the carboxyl terminal alanine residue was designated KL29.
• 2) Preparation of the Cells Expressing Transiently Human SGLT2
KL29, the plasmid coding human SGLT2, was transfected into COS-7 cells (RIKEN CELL BANK RCB0539) by electroporation. Electroporation was performed with EC100 Electroporater (E-C APPARATUS CORPORATION) under the condition: 400 V, 1260 μF, 3.2×10^6 cells of COS-7 cell and 20 μg of KL29 in 800 μL of OPTI-MEM I medium (Gibco-BRL: LIFE TECHNOLOGIES) in the 0.4 cm type cuvette. After the gene transfer, the cells were harvested by centrifugation and resuspended with OPTI-MEM I medium (3.2 mL/cuvette). […]

For experiment [2] the following is noted: normal mice; J. Med. Chem., Vol. 39, pp. 3920-3928 (1996); cited from earlier work.

Each structure is given as a SMILES string.

For orientation: IC50 means the point on the concentration scale where inhibition reaches its midpoint. A low value points to higher potency. Regarding `Cc1c(Cc2ccc(OC(C)C)cc2)c(O[C@@H]2O[C@H](CO)[C@@H](O)[C@H](O)[C@H]2O)nn1-c1ccccc1` [Example 20, 3-(β-D-Glucopyranosyloxy)-4-[(4-isopropoxyphenyl)methyl]-5-methyl-1-phenyl-1H-pyrazole], the 50% inhibitory concentration (IC50) in experiment [1] was found to be 200 nM.
`CSc1ccc(Cc2c(C(F)(F)F)[nH][nH]c2=O)cc1` [WAY-123783]: the IC50 in experiment [1] was above 100000 nM. The “inhibitory activity in human SGLT2” value in experiment [1] (statement in words) is recorded as “extremely weak”. Further, the “amount of excreted glucose” value in experiment [2] was “increased”.
For the compound `CCc1ccc(Cc2c(O[C@@H]3O[C@H](CO)[C@@H](O)[C@H](O)[C@H]3O)nn(-c3ccccc3)c2C)cc1` [Example 18, 4-[(4-Ethylphenyl)methyl]-3-(β-D-glucopyranosyloxy)-5-methyl-1-phenyl-1H-pyrazole], the IC50 in experiment [1] was found to be 270 nM.
